Measured values published in patent US20170035793A1, “Use of P2X Purinergic Receptor Agonists to Enhance Insulin Secretion In Pancreatic Beta Cells” (priority 2010, published 2017).
pEC50: −log10 of the molar value. Entries after “also recorded” stand apart in the source; their conditions may differ.

Tests used:
human islets [1] = experiment: Glucose-induced insulin secretion (glucose raised from 3 mM to 11 mM) in perifused human islets; format: cell-based; details: glucose 3 mM to 11 mM, MRS2159 10 μM, Brilliant Blue G 1 μM, KN-62 1 μM, reactive blue 2 50 μM, MRS2179 10 μM, CGS15943 10 μM, adenosine 100 μM
Source text: (§1) Islet Isolation. Islets were isolated as previously described (57). Monkey islets were isolated from cynomolgus monkeys (Macacca fascicularis) >4 years of age at the time of pancreas procurement, as previously described (58). Pig pancreata were procured from the local slaughterhouse. Mice (C57BL/6) and rat (Lewis rat; Harlan) islets were isolated using a rodent-islet isolation technique (59). All animal protocols were approved by the University of Miami Care and Use Committee. Human pancreatic islets were obtained from the Human Islet Cell Processing Facility at the Diabetes Research Institute, University of Miami Miller School of Medicine or from the Islet Cell Resource basic science islet distribution program, Islet Cell Resource Centers (ICRs) Consortium, Division of Clinical Research, National Center for Research Resources, National Institutes of Health. Human islets were dissociated into single cells using enzyme-free cell dissociation buffer (Invitrogen). Islets and islets cells from Q:1 all species were cultured identically (37° C. and 5% CO2) inCMRL Q:2 medium-1066 (Invitrogen), niacinamide (10 mM; Sigma), ITS (BD Biosciences), Zn2SO4 (15 μM, Sigma), GlutaMAX (2 mM; Invitrogen), Hepes (25 mM; Sigma), FBS (10%; Invitrogen), and penicillinstreptomycin (100 IU/mL-100 μg/mL; Invitrogen).
(§2) Insulin and Glucagon Secretion. Insulin and glucagon secretion were measured as previously described (8, 36). A high-capacity automated perifusion system was developed to dynamically measure hormone secretion from pancreatic islets. A low pulsatility peristaltic pump pushed Hepes-buffered solution (125 mM NaCl, 5.9 mM KCl, 2.56 mM CaCl2, 1 mM MgCl2, 25 mM Hepes, and 0.1% BSA, pH 7.4 at a perifusion rate of 100 μL/min) through a column containing 100 pancreatic islets immobilized in Bio-Gel P-4 Gel (BioRad). Except when otherwise stated, glucose concentration was adjusted to 3 mM for all experiments. Stimuli were applied with the perifusion buffer. The perifusate was collected in an automatic fraction collector designed for a 96-well plate format. The columns containing the islets and the perifusion solutions were kept at 37° C., and the perifusate in the collecting plate was kept at <4° C. Perifusates were collected every 1 min. Hormone release in the perifusate was determined with the human or mouse Endocrine LINCOplex Kit following manufacturer's instructions (Lincoresearch). Human islet preparations varied considerably in their quality. Thus, the magnitudes of the responses to different stimuli were compared with the same recording or using recordings from the same preparation.

human P2X3 receptor = biological target: T1, human P2X3 receptor (Homo sapiens, UniProt P56373); details: read-out: reported EC50 for the human P2X3 receptor; cited from earlier work
T1 sequence (P56373 1-397): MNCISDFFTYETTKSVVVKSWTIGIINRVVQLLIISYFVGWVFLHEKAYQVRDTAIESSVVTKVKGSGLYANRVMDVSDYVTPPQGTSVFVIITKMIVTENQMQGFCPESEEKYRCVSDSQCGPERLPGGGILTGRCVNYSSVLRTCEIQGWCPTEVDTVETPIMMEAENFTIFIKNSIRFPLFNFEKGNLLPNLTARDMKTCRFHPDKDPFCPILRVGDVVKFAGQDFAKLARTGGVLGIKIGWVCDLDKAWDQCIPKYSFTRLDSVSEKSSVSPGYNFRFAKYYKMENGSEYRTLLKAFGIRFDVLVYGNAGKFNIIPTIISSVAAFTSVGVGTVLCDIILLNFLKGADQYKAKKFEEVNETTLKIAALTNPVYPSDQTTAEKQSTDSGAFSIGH

monkey islets [2] = experiment: Insulin secretion from perifused monkey islets; format: cell-based, cynomolgus monkeys (Macacca fascicularis); details: increasing ATP concentrations
Source text: as §1, with “Islets and islets cells from Q:1 all species were cultured identically (37° C. and 5% CO2) inCMRL Q:2 medium-1066 (Invitrogen), niacinamide (10 mM; Sigma), ITS (BD Biosciences), Zn2SO4 (15 μM, Sigma), GlutaMAX (2 mM; Invitrogen), Hepes (25 mM; Sigma), FBS (10%; Invitrogen), and penicillinstreptomycin (100 IU/mL-100 μg/mL; Invitrogen).” left out
(§3) Insulin and Glucagon Secretion. Insulin and glucagon secretion were measured as previously described (8, 36). […] Hormone release in the perifusate was determined with the human or mouse Endocrine LINCOplex Kit following manufacturer's instructions (Lincoresearch). […]

human islets [3] = experiment: Dynamic insulin secretion from perifused human islets kept at constant glucose; format: cell-based
Source text: as §1, §2

human islets [4] = experiment: Glucagon secretion from perifused human islets; format: cell-based
Source text: as §1, with “Islets and islets cells from Q:1 all species were cultured identically (37° C. and 5% CO2) inCMRL Q:2 medium-1066 (Invitrogen), niacinamide (10 mM; Sigma), ITS (BD Biosciences), Zn2SO4 (15 μM, Sigma), GlutaMAX (2 mM; Invitrogen), Hepes (25 mM; Sigma), FBS (10%; Invitrogen), and penicillinstreptomycin (100 IU/mL-100 μg/mL; Invitrogen).” left out
as §3

monkey islets [5] = experiment: Glucagon secretion from perifused monkey islets; format: cell-based, cynomolgus monkeys (Macacca fascicularis)
Source text: as §1, with “Islets and islets cells from Q:1 all species were cultured identically (37° C. and 5% CO2) inCMRL Q:2 medium-1066 (Invitrogen), niacinamide (10 mM; Sigma), ITS (BD Biosciences), Zn2SO4 (15 μM, Sigma), GlutaMAX (2 mM; Invitrogen), Hepes (25 mM; Sigma), FBS (10%; Invitrogen), and penicillinstreptomycin (100 IU/mL-100 μg/mL; Invitrogen).” left out
as §3

mouse islets = experiment: Insulin secretion from perifused mouse islets; format: cell-based, Mice (C57BL/6); details: 1-1,000 μM
Source text: as §1, with “Islets and islets cells from Q:1 all species were cultured identically (37° C. and 5% CO2) inCMRL Q:2 medium-1066 (Invitrogen), niacinamide (10 mM; Sigma), ITS (BD Biosciences), Zn2SO4 (15 μM, Sigma), GlutaMAX (2 mM; Invitrogen), Hepes (25 mM; Sigma), FBS (10%; Invitrogen), and penicillinstreptomycin (100 IU/mL-100 μg/mL; Invitrogen).” left out
as §3

P2X7 receptors = biological target: T2, P2X7 receptors (Homo sapiens, UniProt Q99572); details: cited from earlier work
T2 sequence (Q99572 1-595): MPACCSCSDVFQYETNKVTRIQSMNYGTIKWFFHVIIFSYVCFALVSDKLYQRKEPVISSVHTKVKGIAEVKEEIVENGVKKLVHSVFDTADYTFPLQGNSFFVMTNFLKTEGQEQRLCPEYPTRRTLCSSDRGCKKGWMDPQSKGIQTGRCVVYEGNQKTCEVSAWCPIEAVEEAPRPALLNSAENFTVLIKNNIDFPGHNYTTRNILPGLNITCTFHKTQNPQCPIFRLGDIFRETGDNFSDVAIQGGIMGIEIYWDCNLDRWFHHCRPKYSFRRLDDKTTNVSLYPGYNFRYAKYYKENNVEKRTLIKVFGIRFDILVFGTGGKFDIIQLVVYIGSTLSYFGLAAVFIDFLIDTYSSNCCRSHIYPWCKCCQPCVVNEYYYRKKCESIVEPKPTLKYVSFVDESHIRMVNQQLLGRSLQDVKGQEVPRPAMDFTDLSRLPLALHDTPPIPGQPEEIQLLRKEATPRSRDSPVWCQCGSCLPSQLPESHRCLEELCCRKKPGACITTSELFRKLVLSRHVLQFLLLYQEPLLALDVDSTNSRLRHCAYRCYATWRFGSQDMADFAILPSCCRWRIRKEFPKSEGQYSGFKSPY

In the case of Nc1ncnc2c1ncn2[C@@H]1O[C@H](COP(=O)(O)OP(=O)(O)OP(=O)(O)O)[C@@H](O)[C@H]1O [ATP], the “effect on glucose-induced insulin secretion” value (human islets [1]) is listed as “did not add to the insulin response; also recorded: not effective during abrupt increases in glucose concentration”, the pEC50 (human P2X3 receptor) is listed as about 6.41 and the “insulin response of monkey islets” value (monkey islets [2]) is listed as “responded to increasing concentrations of ATP like human islets”. For the same molecule, the pEC50 (human islets [3]; 3 mM and 11 mM glucose, read-out: high affinity component of the concentration response relationship for insulin release) was about 6.30, the “insulin secretory response to the agonist at low glucose” value (human islets [3]; 3 mM glucose, ATP 100 μM (or concentration series), ATPγS 50 μM, BzATP 50 μM, α,β-methylene ATP 50 μM, ADP 100 μM, UTP 100 μM, adenosine 100 μM) was “elicited insulin secretory responses; also recorded: stimulated increases in insulin release concentration dependently; also recorded: promoted strong responses; also recorded: elicited large insulin and [Ca^2+]i, responses” and the “response to high glucose (11 mM) compared with the increase elicited by ATP (1 mM)” value (human islets [3]; ATP 1 mM response as reference) was 101%±30. For the same molecule, the “insulin release on increasing extracellular ATP >1 mM” value (human islets [3]; ATP >1 mM) was “did not further raise insulin release”, the “insulin responses to the agonist in islets kept at high glucose” value (human islets [3]; constant 11 mM glucose, ATP 100 μM, ATPγS 50 μM, BzATP 50 μM, UTP 100 μM, ADP 100 μM) was “stimulated increases in insulin release concentration dependently; also recorded: promoted strong responses” and the “glucagon response of human islets” value (human islets [4]) was “stimulated small increases in glucagon secretion”. The “glucagon response of monkey islets” value (monkey islets [5]) was “stimulated small increases in glucagon secretion”, the “insulin response of mouse islets” value (mouse islets) was “No responses to ATP were observed; also recorded: neither ATP nor any of the other purinergic agonists tested stimulated insulin release” and the “ATP concentrations required for activation of homomeric P2X7 receptors” value (P2X7 receptors) was over 100. The pEC50 (P2X7 receptors; read-out: EC50 for activation of P2X7 receptors) was 4.00.
